According to patent US20220202912A1, “Polypeptides in Preparation of Drugs for Treatment or Prevention of Rheumatoid Arthritis” (priority 2011, published 2022):
Where “and” joins values, the source holds several entries; their conditions need not be identical. Equal entries are not always repeated. Where no end group is shown, it is not given here.

Test system: CIA transgenic TNF-luc mice
Test: collagen type II-induced arthritis in transgenic TNF-luc mice (swelling, scores, weight)
Assay type: in vivo, BALB/c transgenic TNF-luc mice
Set-up: key to joint index score / arthritis index score: 0–4 per paw, four paws summed, max 16; key to swelling degree of right ankle: cm, day n thickness minus initial ankle thickness; key to systemic score: systemic score points, max 8
Settings: for left ankle swelling / right ankle swelling changes / arthritis index score / clinical score: Adalimumab 8 mg/kg, mPEG-SC20k-HM-3 20 mg/kg; for right ankle swelling changes: CIA TNF-luc mice; for right ankle swelling changes / arthritis index score / clinical score: mean ± SD; for arthritis index score / clinical score: CIA chronic model; for systemic score / joint index score / swelling degree of right ankle: 20 mg/kg
Method: 8 animals are randomly divided into 4 groups (n=2), a normal group, a model group, a positive drug group and a test group. On day 0, for the primary immunization, mice are hypodermically injected with 50 μL collagen emulsifier (containing CII 100 μg/ mouse) at the tail root of mice for sensitization. On day 0, initial ankle widths, initial foot palm widths and initial toe thicknesses of left and right feet of mice in each group are measured separately.
After day 21, the same dosage of emulsifier is used for second immunization at the tail root. After the symptoms such as redness and swelling of joints appear on the four toes of mice, continuous administration is performed for 15 days. The normal group and the model group are separately hypodermically injected with 0.9% normal saline (0.2 mL/20 g of body weight), once every 2 days, 7 times in total. The positive drug Adalimumab group is hypodermically injected with Adalimumab (8 mg/kg of body weight), once every 15 days, once in total. The test treatment group is hypodermically injected with mPEG-SC20k-HM-3 (20 mg/kg of body weight), once every 2 days, 7 times in total.
Every 2 days, the thickness of the ankle, the width of the foot palm and the thickness of the toes of each group of mice are measured with a vernier caliper.
Swelling degree of left ankle (cm)=swelling thickness of left ankle on day n of the experiment−measured initial thickness of left ankle.
Swelling degree of right ankle (cm)=swelling thickness of right ankle on day n of the experiment−measured initial thickness of right ankle.
The joints of the mouse paw are observed with naked eyes, and the joints are scored every 2 days from day 30. Scoring is performed in terms of level 0 to level 4, 5 levels in total. 0=no erythema or swelling; 1=slight erythema or swelling, with erythema or swelling on one of the front/hind toe joints; 2=erythema or swelling on more than one toe; 3=swelling of paw beneath the ankle or wrist joint; 4=swelling of all paws including the ankle joint. Four paws of the mice are scored separately, and the highest score is 16 points.
After the secondary inflammation appears, systemic scoring is performed every 2 days, and the scoring standards are as follows:
Hind foot: no swelling=0 point, swelling of one hind foot=1 point, swelling of two hind feet=2 points.
Front foot: no swelling=0, swelling of one front foot=1 point, swelling of two front feet=2 points.
Ears: no redness symptoms and nodules=0 point, redness symptoms or nodules of one ear=1 point, red symptoms and nodules of two ears=2 points.
Nose: no swelling=0 point, obvious swelling=1 point.
Tail: no nodule=0 point, nodules=1 point; the highest score is 8 points.

mPEG-SC20k-Ile-Val-Arg-Arg-Ala-Asp-Arg-Ala-Ala-Val-Pro-Gly-Gly-Gly-Gly-Arg-Gly-Asp ({mPEG‑SC 20k}-IVRRADRAAVPGGGGRGD) [polypeptide III, No. 3]
left ankle swelling (0 d): 0.000 ± 0.000 cm
right ankle swelling changes (0 d): 0.000 ± 0.000 cm
left ankle swelling (12 d): 0.011 ± 0.004 cm
right ankle swelling changes (12 d): 0.005 ± 0.021 cm
left ankle swelling (15 d): 0.028 ± 0.023 cm
right ankle swelling changes (15 d): 0.003 ± 0.004 cm
left ankle swelling (18 d): 0.016 ± 0.008 cm
right ankle swelling changes (18 d): 0.011 ± 0.016 cm
left ankle swelling (21 d): 0.011 ± 0.010 cm
right ankle swelling changes (21 d): 0.010 ± 0.011 cm
left ankle swelling (24 d): 0.008 ± 0.006 cm
right ankle swelling changes (24 d): 0.007 ± 0.005 cm
left ankle swelling (27 d): 0.009 ± 0.004 cm
right ankle swelling changes (27 d): 0.004 ± 0.014 cm
left ankle swelling (30 d): 0.003 cm
right ankle swelling changes (30 d): 0.015 ± 0.001 cm
arthritis index score (30 d): 5.50 ± 0.71
clinical score (30 d): 4.50 ± 0.71
left ankle swelling (33 d): 0.007±0.013 cm
right ankle swelling changes (33 d): 0.018 ± 0.020 cm
arthritis index score (33 d): 7.00 ± 1.41
clinical score (33 d): 4.00 ± 0.00
left ankle swelling (36 d): 0.006 ± 0.006 cm
right ankle swelling changes (36 d): 0.006 ± 0.008 cm
arthritis index score (36 d): 6.50 ± 0.71
clinical score (36 d): 4.00 ± 0.00
left ankle swelling (39 d): 0.026±0.023 cm
right ankle swelling changes (39 d): 0.001 ± 0.007 cm
arthritis index score (39 d): 6.00 ± 0.00
clinical score (39 d): 4.00 ± 0.00
left ankle swelling (42 d): 0.004 ± 0.006 cm
right ankle swelling changes (42 d): 0.017 ± 0.004 cm
arthritis index score (42 d): 4.50 ± 0.71
clinical score (42 d): 4.00 ± 0.00
left ankle swelling (45 d): 0.011±0.004 cm
right ankle swelling changes (45 d): 0.000 ± 0.006 cm
arthritis index score (45 d): 4.50 ± 0.71
clinical score (45 d): 4.00 ± 0.00
left ankle swelling (48 d): 0.001±0.021 cm
right ankle swelling changes (48 d): 0.001 ± 0.007 cm
arthritis index score (48 d): 4.50 ± 0.71
clinical score (48 d): 5.00 ± 0.00
left ankle swelling (51 d): 0.023±0.007 cm and 0.023 cm
right ankle swelling changes (51 d): 0.005 ± 0.007 cm
arthritis index score (51 d): 4.50 ± 0.71
clinical score (51 d): 4.00 ± 0.00
systemic score (day 33): 4.00±0.00
joint index score (day 36): 6.50±0.71
swelling degree of right ankle (day 36): 0.006±0.008
systemic score (day 36): 4.00±0.00
joint index score (day 39): 6.00±0.00
swelling degree of right ankle (day 39): 0.001±0.008
systemic score (day 39): 4.00±0.00
joint index score (day 42): 4.50±0.7
swelling degree of right ankle (day 42): 0.001±0.007
systemic score (day 42): 4.00±0.00
joint index score (day 45): 4.50±0.71
swelling degree of right ankle (day 45): 0.000±0.006
systemic score (day 45): 4.00±0.00
joint index score (day 48): 4.50±0.71
swelling degree of right ankle (day 48): 0.001±0.007
joint index score (day 51): 4.50±0.71
swelling degree of right ankle (day 51): 0.005±0.007
systemic score (day 51): 4.00±0.00
